One assay has as its target T1, CDK4/Cyclin D1 (Homo sapiens, UniProt P11802).
T1 construct: purchased ProQinase; host or cells: insect cell
Nature of the assay: CDK4/CyclinD1 enzymatic activity assay (TR-FRET). The following applies: ATP 2 mM final, read-out: CDK4_D1 IC50. Type of assay: biochemical. In outline: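 Insect-cell-expressed CDK4/Cyclin D1 (1 nM) phosphorylated ULight-4E-BP1 peptide (100 nM) at 2 mM ATP in HEPES pH 7.4 buffer after 20 min compound preincubation. Reaction started with 10 mM MgCl2, ran 45 min at 37 °C, then EDTA quench and Eu-anti-phospho-4E-BP1 TR-FRET detection. IC50 from 9-point 3-fold dilutions, 4-parameter fit.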
(In general: In TR-FRET formats the signal depends on donor and acceptor labels being close together.)

The target of another assay is CDK2/Cyclin E2 (Homo sapiens, UniProt P24941). Description: CDK2/CyclinE2 enzymatic activity assay (TR-FRET). It is filed as biochemical. The note with it: ATP 1 mM final, read-out: CDK2_E1 IC50. An outline of the steps: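 Insect-cell-expressed CDK2/Cyclin E2 (1 nM), ULight-4E-BP1 (50 nM) and ATP (1 mM) in HEPES pH 7.4 buffer were preincubated 20 min at RT with compound (9-dose, 3-fold), started with 10 mM MgCl2 and run 45 min at 37 °C. EDTA/Eu-anti-P-4E-BP1 stop, 60 min TR-FRET detection; IC50 from 4-parameter Hill fit.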

For another assay, the system named is OVCAR3 p-RB. Description: pRB ICW assay in OVCAR3 cells. Type of assay: cell-based. The following applies: Homo sapiens, OVCAR-3, incubated with compound for 2 hours. In outline:
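OVCAR3 cells were treated 2 h at 37 °C with a 9-point half-log compound series, in duplicate, with 10 μM reference compound as maximum inhibition. Cells were then fixed, permeabilized and stained with anti-phospho-RB plus DRAQ5. In-cell western intensities were read at 700/800 nm on Odyssey CLx.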

T1 sequence (P11802 whole entry): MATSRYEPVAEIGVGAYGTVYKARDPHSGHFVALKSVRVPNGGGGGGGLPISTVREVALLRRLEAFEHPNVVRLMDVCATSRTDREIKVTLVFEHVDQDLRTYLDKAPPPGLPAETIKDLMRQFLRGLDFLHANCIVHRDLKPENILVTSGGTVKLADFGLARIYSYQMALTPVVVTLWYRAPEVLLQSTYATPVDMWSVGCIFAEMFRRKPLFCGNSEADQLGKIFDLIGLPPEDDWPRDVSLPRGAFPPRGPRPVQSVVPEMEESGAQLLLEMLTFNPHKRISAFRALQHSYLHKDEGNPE
T1 sequence (P24385 whole entry partner): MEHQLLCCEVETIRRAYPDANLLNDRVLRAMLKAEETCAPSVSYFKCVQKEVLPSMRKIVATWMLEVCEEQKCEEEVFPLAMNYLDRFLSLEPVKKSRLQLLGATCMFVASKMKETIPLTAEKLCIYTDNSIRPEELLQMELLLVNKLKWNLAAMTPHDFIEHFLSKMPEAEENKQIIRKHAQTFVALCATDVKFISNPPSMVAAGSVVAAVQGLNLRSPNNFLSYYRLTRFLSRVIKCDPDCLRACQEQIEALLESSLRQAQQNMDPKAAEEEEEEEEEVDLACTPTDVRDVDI

Regarding `CC(C)Nc1ncc(-c2nc(NC3CCN(S(C)(=O)=O)CC3)ncc2C(F)(F)F)s1` [Example 41, 5-[2-[(1-Methylsulfonylpiperidin-4-yl)amino]-5-(trifluoromethyl)pyrimidin-4-yl]-N-propan-2-yl-1,3-thiazol-2-amine], the results for the IC50 at CDK4/Cyclin D1, on CDK2/Cyclin E2 and in the assay with OVCAR3 p-RB were at most 100 nM, at most 100 nM and 100 to 1000 nM, respectively.

For the compound `CS(=O)(=O)N1CCC(Nc2ncc(C(F)(F)F)c(-c3cnc(C(F)F)s3)n2)CC1` [Example 42, 4-[2-(Difluoromethyl)-1,3-thiazol-5-yl]-N-(1-methylsulfonylpiperidin-4-yl)-5-(trifluoromethyl)pyrimidin-2-amine], the IC50 on CDK4/Cyclin D1 is 100 to 1000 nM; on CDK2/Cyclin E2, at most 100 nM; in the assay with OVCAR3 p-RB it was above 1000 nM.

Consider `CS(=O)(=O)N1CCC(Nc2ncc(C(F)(F)F)c(-c3cnc(O[C@@H]4CCC[C@H]4O)s3)n2)CC1` [Example 44, (1R,2R)-2-((5-(2-((1-(Methylsulfonyl)piperidin-4-yl)amino)-5-(trifluoromethyl)pyrimidin-4-yl)thiazol-2-yl)oxy)cyclopentanol], for which the IC50 at CDK4/Cyclin D1 was at most 100 nM; at CDK2/Cyclin E2 it was at most 100 nM; with OVCAR3 p-RB it was 100 to 1000 nM.

On to `CCS(=O)(=O)N1CCC(Nc2ncc(C(F)(F)F)c(-c3cnc(C)s3)n2)CC1` [Example 45, N-(1-(Ethylsulfonyl)piperidin-4-yl)-4-(2-methylthiazol-5-yl)-5-(trifluoromethyl)pyrimidin-2-amine], for which the IC50 on CDK4/Cyclin D1 is 100 to 1000 nM; on CDK2/Cyclin E2, at most 100 nM; with OVCAR3 p-RB it was 100 to 1000 nM.

As for `Cc1ncc(-c2nc(NC3CCN(S(=O)(=O)C4CC4)CC3)ncc2C(F)(F)F)s1` [Example 46, N-(1-(Cyclopropylsulfonyl)piperidin-4-yl)-4-(2-methylthiazol-5-yl)-5-(trifluoromethyl)pyrimidin-2-amine], the half-inhibitory concentration (IC50) was 100 to 1000 nM on CDK4/Cyclin D1, at most 100 nM at CDK2/Cyclin E2 and 100 to 1000 nM with OVCAR3 p-RB.

With `Cc1ncc(-c2nc(NC3CCN(S(=O)(=O)N(C)C)CC3)ncc2C(F)(F)F)s1` [Example 47, N,N-Dimethyl-4-((4-(2-methylthiazol-5-yl)-5-(trifluoromethyl)pyrimidin-2-yl)amino)piperidine-1-sulfonamide], the results for the IC50 at CDK4/Cyclin D1, at CDK2/Cyclin E2 and in the assay on OVCAR3 p-RB were 100 to 1000 nM, at most 100 nM and above 1000 nM, respectively.

For the compound `CCNS(=O)(=O)N1CCC(Nc2ncc(C(F)(F)F)c(-c3cnc(C)s3)n2)CC1` [Example 48, N-Ethyl-4-((4-(2-methylthiazol-5-yl)-5-(trifluoromethyl)pyrimidin-2-yl)amino)piperidine-1-sulfonamide], the IC50 was 100 to 1000 nM at CDK4/Cyclin D1, at most 100 nM at CDK2/Cyclin E2 and above 1000 nM with OVCAR3 p-RB.

In the case of `CCOc1ncc(-c2nc(NC3CCN(S(C)(=O)=O)CC3)ncc2C(F)(F)F)s1` [Example 52, 4-(2-Ethoxy-1,3-thiazol-5-yl)-N-(1-methylsulfonylpiperidin-4-yl)-5-(trifluoromethyl)pyrimidin-2-amine], the results for the IC50 at CDK4/Cyclin D1, at CDK2/Cyclin E2 and with OVCAR3 p-RB were at most 100 nM, at most 100 nM and 100 to 1000 nM, respectively.

On to `COC(=O)Nc1ncc(-c2nc(NC3CCN(S(C)(=O)=O)CC3)ncc2C(F)(F)F)s1` [Example 54, Methyl N-[5-[2-[(1-methylsulfonylpiperidin-4-yl)amino]-5-(trifluoromethyl)pyrimidin-4-yl]-1,3-thiazol-2-yl]carbamate], for which the IC50 at CDK4/Cyclin D1 was 100 to 1000 nM; on CDK2/Cyclin E2, at most 100 nM; in the assay with OVCAR3 p-RB, above 1000 nM.

On to `CS(=O)(=O)N1CCC(Nc2ncc(C(F)(F)F)c(-c3cnc(NC(=O)C(F)(F)F)s3)n2)CC1` [Example 57, 2,2,2-Trifluoro-N-[5-[2-[(1-methylsulfonylpiperidin-4-yl)amino]-5-(trifluoromethyl)pyrimidin-4-yl]-1,3-thiazol-2-yl]acetamide], for which the IC50 at CDK4/Cyclin D1 is at most 100 nM; on CDK2/Cyclin E2 it was at most 100 nM; in the assay on OVCAR3 p-RB it was above 1000 nM.

On to `Cc1ncc(-c2nc(NC3CCN(S(=O)(=O)c4cn(C)cn4)CC3)ncc2C(F)(F)F)s1` [Example 58, N-[1-(1-Methylimidazol-4-yl)sulfonylpiperidin-4-yl]-4-(2-methyl-1,3-thiazol-5-yl)-5-(trifluoromethyl)pyrimidin-2-amine], for which the IC50 is at most 100 nM on CDK4/Cyclin D1, at most 100 nM at CDK2/Cyclin E2 and 100 to 1000 nM in the assay with OVCAR3 p-RB.

On to `Cc1ncc(-c2nc(NC3CCN(S(=O)(=O)c4ccn(C)n4)CC3)ncc2C(F)(F)F)s1` [Example 59, N-[1-(1-Methylpyrazol-3-yl)sulfonylpiperidin-4-yl]-4-(2-methyl-1,3-thiazol-5-yl)-5-(trifluoromethyl)pyrimidin-2-amine], for which the IC50 on CDK4/Cyclin D1 was at most 100 nM; on CDK2/Cyclin E2, at most 100 nM; in the assay on OVCAR3 p-RB it was 100 to 1000 nM.

Consider `Cc1ncc(-c2nc(NC3CCN(S(=O)(=O)c4cnn(C)c4)CC3)ncc2C(F)(F)F)s1` [Example 60, N-[1-(1-Methylpyrazol-4-yl)sulfonylpiperidin-4-yl]-4-(2-methyl-1,3-thiazol-5-yl)-5-(trifluoromethyl)pyrimidin-2-amine], for which the IC50 was at most 100 nM on CDK4/Cyclin D1, at most 100 nM on CDK2/Cyclin E2 and 100 to 1000 nM in the assay with OVCAR3 p-RB.

Consider `Cc1ncc(-c2nc(NC3CCN(S(=O)(=O)CCO)CC3)ncc2C(F)(F)F)s1` [Example 61, 2-[4-[[4-(2-methyl-1,3-thiazol-5-yl)-5-(trifluoromethyl)pyrimidin-2-yl]amino]piperidin-1-yl]sulfonylethanol], for which the IC50 on CDK4/Cyclin D1 is at most 100 nM; on CDK2/Cyclin E2, at most 100 nM; with OVCAR3 p-RB, 100 to 1000 nM.

Regarding `CN(C)c1ncc(-c2nc(NC3CCN(S(C)(=O)=O)CC3)ncc2C(F)F)s1` [Example 62, 5-[5-(Difluoromethyl)-2-[(1-methylsulfonylpiperidin-4-yl)amino]pyrimidin-4-yl]-N,N-dimethyl-1,3-thiazol-2-amine], the figures for the IC50 on CDK4/Cyclin D1, at CDK2/Cyclin E2 and with OVCAR3 p-RB were 100 to 1000 nM, 100 to 1000 nM and above 1000 nM, respectively.

Regarding `CS(=O)(=O)N1CCC(Nc2ncc(C(F)(F)F)c(-c3cnc(CN)s3)n2)CC1` [Example 64, 4-[2-(Aminomethyl)-1,3-thiazol-5-yl]-N-(1-methylsulfonylpiperidin-4-yl)-5-(trifluoromethyl)pyrimidin-2-amine], the IC50 on CDK4/Cyclin D1 is 100 to 1000 nM; on CDK2/Cyclin E2, at most 100 nM; in the assay on OVCAR3 p-RB, above 1000 nM.

As for `CN(C)Cc1ncc(-c2nc(NC3CCN(S(C)(=O)=O)CC3)ncc2C(F)(F)F)s1` [Example 65, 4-[2-[(Dimethylamino)methyl]-1,3-thiazol-5-yl]-N-(1-methylsulfonylpiperidin-4-yl)-5-(trifluoromethyl)pyrimidin-2-amine], the IC50 was 100 to 1000 nM at CDK4/Cyclin D1, at most 100 nM on CDK2/Cyclin E2 and above 1000 nM with OVCAR3 p-RB.

For the compound `Cn1cc(S(=O)(=O)N2CCC(Nc3ncc(C(F)(F)F)c(-c4cnc(CC(C)(C)O)s4)n3)CC2)cn1` [Example 67, 2-Methyl-1-(5-(2-((1-((1-methyl-1H-pyrazol-4-yl)sulfonyl)piperidin-4-yl)amino)-5-(trifluoromethyl)pyrimidin-4-yl)thiazol-2-yl)propan-2-ol], the IC50 at CDK4/Cyclin D1, at CDK2/Cyclin E2 and with OVCAR3 p-RB was at most 100 nM in each case.

For `CC(C)(O)Cc1ncc(-c2nc(NC3CCN(S(C)(=O)=O)CC3)ncc2C(F)(F)F)s1` [Example 68, 2-methyl-1-(5-(2-((1-(methylsulfonyl)piperidin-4-yl)amino)-5-(trifluoromethyl)pyrimidin-4-yl)thiazol-2-yl) propan-2-ol], the IC50 on CDK4/Cyclin D1, at CDK2/Cyclin E2 and with OVCAR3 p-RB was at most 100 nM throughout.

In the case of `CC(C)(O)Cc1ncc(-c2nc(N[C@H]3CCN(S(C)(=O)=O)C[C@H]3F)ncc2C(F)(F)F)s1` [Example 69, 1-(5-(2-(((3R,4S)-3-fluoro-1-(methylsulfonyl)piperidin-4-yl)amino)-5-(trifluoromethyl)pyrimidin-4-yl)thiazol-2-yl)-2-methylpropan-2-ol], the IC50 on CDK4/Cyclin D1, at CDK2/Cyclin E2 and in the assay on OVCAR3 p-RB was at most 100 nM in each case.

As for `Cn1cnc(S(=O)(=O)N2CCC(Nc3ncc(C(F)(F)F)c(-c4cnc(CC(C)(C)O)s4)n3)CC2)c1` [Example 70, 2-methyl-1-(5-(2-((1-((1-methyl-1H-imidazol-4-yl)sulfonyl)piperidin-4-yl)amino)-5-(trifluoromethyl)pyrimidin-4-yl)thiazol-2-yl)propan-2-ol], the IC50 at CDK4/Cyclin D1, on CDK2/Cyclin E2 and in the assay on OVCAR3 p-RB was at most 100 nM each time.

On to `C[C@@H]1CN(S(=O)(=O)c2cnn(C)c2)CC[C@@H]1Nc1ncc(C(F)(F)F)c(-c2cnc(CC(C)(C)O)s2)n1` [Example 71, 2-methyl-1-(5-(2-(((3R,4S)-3-methyl-1-((1-methyl-1H-pyrazol-4-yl)sulfonyl)piperidin-4-yl)amino)-5-(trifluoromethyl)pyrimidin-4-yl)thiazol-2-yl)propan-2-ol], for which the IC50 on CDK4/Cyclin D1 was 100 to 1000 nM; on CDK2/Cyclin E2 it was at most 100 nM; in the assay with OVCAR3 p-RB, 100 to 1000 nM.

For orientation: IC50 means the concentration needed to halve the response being measured.

Source of the values: patent US20240018136A1, “CDK Inhibitors And Their Use As Pharmaceuticals” (Prelude Therapeutics, Incorporated, priority 2022, published 2024).
